Experimental data reported in patent US7485634B2, “Azepinoindole and pyridoindole derivatives as pharmaceutical agents” (Exelixis, Inc., priority 2002, dated 2009).
Where two headings read alike, the source gives them in different places.

Experiments:
farnesoid X receptor = biological target: T1, farnesoid X receptor (Homo sapiens, UniProt Q96RI1); test: one or more of the in vitro assays described herein (TR-FRET assay, Example 75; co-transfection assay, Example 76); settings: for Emax: read-out: efficacy; for inhibition: 100% = baseline (DMSO only);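 as to all read-outs here: TR-FRET assay or luciferase reporter in CV-1 monkey kidney cells co-transfected with human FXR and RXRα, dose-response over 8 half-log concentrations, CDCA added in antagonist mode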
T1 construct: fused on or other part: GST fused in frame to the N-terminus of the LBD (TR-FRET assay only); Nothing is fused on in the co-transfection assay
T1 sequence (Q96RI1 244-471 isoform Q96RI1-2 limits assumed): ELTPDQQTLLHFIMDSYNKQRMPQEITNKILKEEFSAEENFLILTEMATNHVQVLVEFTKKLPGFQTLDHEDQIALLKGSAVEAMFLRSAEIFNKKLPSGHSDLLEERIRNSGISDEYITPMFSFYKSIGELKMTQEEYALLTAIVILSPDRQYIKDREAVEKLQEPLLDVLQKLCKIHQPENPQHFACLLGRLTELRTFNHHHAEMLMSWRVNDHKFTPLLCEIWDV

[1] = biological target: T2, full length human farnesoid X receptor (Homo sapiens, UniProt Q96RI1); test: farnesoid X receptor/ECREx7 co-transfection assay (luciferase reporter, CV-1 cells); assay type: cell-based; settings: read-out: agonist activity EC50
T2 construct: CMX-farnesoid X receptor (full length human farnesoid X receptor); expressed in transfected cells; host or cells: CV-1 African Green Monkey Kidney cells
T2 sequence (Q96RI1 1-472 isoform Q96RI1-2): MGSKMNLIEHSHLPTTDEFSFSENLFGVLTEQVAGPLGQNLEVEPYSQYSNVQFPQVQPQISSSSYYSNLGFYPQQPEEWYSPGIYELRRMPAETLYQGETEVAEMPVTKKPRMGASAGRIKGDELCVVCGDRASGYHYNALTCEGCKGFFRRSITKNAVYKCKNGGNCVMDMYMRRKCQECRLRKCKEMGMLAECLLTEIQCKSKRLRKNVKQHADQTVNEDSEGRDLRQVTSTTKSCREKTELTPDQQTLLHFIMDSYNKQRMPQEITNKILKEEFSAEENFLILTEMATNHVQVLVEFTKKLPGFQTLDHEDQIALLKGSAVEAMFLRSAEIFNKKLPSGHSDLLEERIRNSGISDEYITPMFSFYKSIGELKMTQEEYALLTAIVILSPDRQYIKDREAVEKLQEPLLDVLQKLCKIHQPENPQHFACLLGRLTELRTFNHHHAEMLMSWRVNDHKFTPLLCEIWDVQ
T2 sequence (P19793 1-462 partner): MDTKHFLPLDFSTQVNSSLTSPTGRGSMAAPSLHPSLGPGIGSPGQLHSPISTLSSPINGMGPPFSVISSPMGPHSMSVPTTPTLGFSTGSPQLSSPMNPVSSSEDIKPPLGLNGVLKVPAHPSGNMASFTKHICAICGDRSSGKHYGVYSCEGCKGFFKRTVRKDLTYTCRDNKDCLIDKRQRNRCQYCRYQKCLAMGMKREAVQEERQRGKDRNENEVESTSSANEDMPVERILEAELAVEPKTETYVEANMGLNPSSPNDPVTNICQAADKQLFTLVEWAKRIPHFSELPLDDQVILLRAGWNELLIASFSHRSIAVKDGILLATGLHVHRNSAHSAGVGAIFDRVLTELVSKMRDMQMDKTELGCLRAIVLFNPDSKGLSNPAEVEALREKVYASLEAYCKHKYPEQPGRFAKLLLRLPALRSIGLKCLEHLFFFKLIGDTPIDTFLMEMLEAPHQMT
Description: The basic co-transfection protocol for measuring the farnesoid X receptor activity is as follows. CV-1 African Green Monkey Kidney cells were plated 24 hours before transfection to achieve approximately 70-80 percent confluency. Cells were transfected with the following expression vectors, CMX-farnesoid X receptor (full length human farnesoid X receptor), CMX-RXRα (full length human RXR), Luc12 (ECREx7-Tk-Luciferase) luciferase reporter gene construct. (See WO 00/76523, Venkateswaran et al., (2000) J. Biol. Chem. 275 14700-14707). A CMX-β-Galactosidase expression vector was used as a transfection control. The transfection reagent used was DOTAP (Boehringer Mannheim). Cells were incubated with the DOTAP/DNA mixture for 5 hours after which the cells were harvested and plated onto either 96 well or 384 well plates containing the appropriate concentration of test compound. The assay was allowed to continue for an additional 18-20 hours, after which the cells were lysed, with lysis buffer (1% triton X 100, 10% glycerol, 5 mM Dithiothreitol, 1 mM EGTA, 25 mM Tricine, pH 7.8) and the luciferase activity measured in the presence of Luciferase assay buffer (0.73 mM ATP, 22.3 mM Tricine, 0.11 mM EGTA, 0.55 mM Luciferin, 0.15 mM Coenzyme A, 0.5 mM HEPES, 10 mM Magnesium sulphate) on a standard luminomter plate reader (PE Biosystems, NorthStar Reader), using recommended operating instructions and conditions.
Both the farnesoid X receptor/ECREx7 co-transfection assay (Example 76) and the TR-FRET assay (Example 75) can be used to establish the EC50/IC50 values for potency and percent activity or inhibition for efficacy. Efficacy defines the activity of a compound relative to a high control (chenodeoxycholic acid, CDCA) or a low control (DMSO/vehicle). The dose response curves are generated from an 8 point curve with concentrations differing by ½ LOG units. Each point represents the average of 4 wells of data from a 384 well plate. The curve for the data is generated by using the equation: Y=Bottom+(Top−Bottom)/(1+10^((LogEC50−X)*HillSlope))
The EC50/IC50 is therefore defined as the concentration at which an agonist or antagonist elicits a response that is half way between the Top (maximum) and Bottom (baseline) values. The EC50/IC50 values represented are the averages of at least 3 independent experiments. The determination of the relative efficacy or % control for an agonist is by comparison to the maximum response achieved by chenodeoxycholic acid that is measured individually in each dose response experiment.
For the antagonist assay, CDCA is added to each well of a 384 well plate to elicit a response. The % inhibition for each antagonist is therefore a measurement of the inhibition of the activity of CDCA.

[2] = one or more of the in vitro assays, read-out: EC50 (agonist / partial agonist)
[3] = relative to maximum response of chenodeoxycholic acid (CDCA)
[4] = inhibition of the activity of CDCA
[5] = inhibition of the activity of CDCA, read-out: IC50 (antagonist / partial agonist)

Compound	EC50 (farnesoid X receptor; [2]) [nM]	Emax (farnesoid X receptor; [3]) [%]	inhibition (farnesoid X receptor; [4]) [%]	IC50 (farnesoid X receptor; [5]) [nM]	also measured
CCOC(=O)C1=CN(C(=O)c2cccc(F)c2)CCc2c1[nH]c1ccccc21 [3-(3-fluorobenzoyl)-1,2,3,6-tetrahydroazepino[4,5-b]indole-5-carboxylic acid ethyl ester]	–	–	–	–	EC50 [1]: < 1000 nM
CCOC(=O)C1=CN(C(=O)c2ccc(F)cc2)CC(C)(C)c2c1[nH]c1cc(N(C)C(=O)NCc3ccccn3)ccc21 [3-(4-fluorobenzoyl)-1,1-dimethyl-8-(1-methyl-3-pyridin-2-ylmethylureido)-1,2,3,6-tetrahydroazepino[4,5-b]indole-5-carboxylic acid ethyl ester]	–	–	100	< 100	–
CCOC(=O)C1=CN(C(=O)c2ccc(F)cc2)CC(C)(C)c2c1[nH]c1cc(OC(=O)NCCc3ccccn3)ccc21 [3-(4-fluorobenzoyl)-1,1-dimethyl-8-(2-pyridin-2-yl-ethylcarbamoyloxy)-1,2,3,6-tetrahydroazepino[4,5-b]indole-5-carboxylic acid ethyl ester]	< 200	10 to 30	–	< 200	–
CCOC(=O)C1=CN(C(=O)c2ccc(F)cc2)CC(C)(C)c2c1[nH]c1cc(OC(=O)NCc3cnc(C)cn3)ccc21 [3-(4-fluorobenzoyl)-1,1-dimethyl-8-(5-methylpyrazin-2-ylmethylcarbamoyloxy)-1,2,3,6-tetrahydroazepino[4,5-b]indole-5-carboxylic acid ethyl ester]	< 200	10 to 30	–	< 200	–
CCOC(=O)C1=CN(C(=O)c2ccc(F)cc2)CC(C)(C)c2c1[nH]c1cc(OC(=O)NCc3ccccn3)ccc21 [3-(4-fluorobenzoyl)-1,1-dimethyl-8-(pyridin-2-yl-methylcarbamoyloxy)-1,2,3,6-tetrahydroazepino[4,5-b]indole-5-carboxylic acid ethyl ester]	–	–	–	–	EC50 (farnesoid X receptor): < 200 nM; IC50 (farnesoid X receptor): < 200 nM; Emax (farnesoid X receptor): 10 to 30%
CCOC(=O)C1=CN(C(=O)c2ccc(F)cc2)CC(C)(C)c2c1[nH]c1cc(OC(=O)NCc3cccnc3)ccc21 [3-(4-fluorobenzoyl)-1,1-dimethyl-8-(pyridin-3-ylmethylcarbamoyloxy)-1,2,3,6-tetrahydroazepino[4,5-b]indole-5-carboxylic acid ethyl ester]	< 200	10 to 30	–	< 200	–
CCOC(=O)C1=CN(C(=O)c2ccc(F)cc2)CC(C)(C)c2c1[nH]c1cc(OC(=O)NCc3cccs3)ccc21 [3-(4-fluorobenzoyl)-1,1-dimethyl-8-(thiophen-2-ylmethylcarbamoyloxy)-1,2,3,6-tetrahydroazepino[4,5-b]indole-5-carboxylic acid ethyl ester]	–	–	100	< 100	–
CCOC(=O)C1=CN(C(=O)c2ccc(F)cc2)CC(C)(C)c2c1[nH]c1cc(OC(=O)NC(C)C)ccc21 [3-(4-fluorobenzoyl)-1,1-dimethyl-8-isopropylcarbamoyloxy-1,2,3,6-tetrahydroazepino[4,5-b]indole-5-carboxylic acid ethyl ester]	–	–	100	< 100	–
CC1Cc2c([nH]c3ccccc23)C(C(=O)NC2CCC2)=CN1C(=O)c1ccc(F)cc1 (stereo not drawn) [3-(4-fluorobenzoyl)-2-methyl-1,2,3,6-tetrahydroazepino[4,5-b]indole-5-carboxylic acid cyclobutylamide]	< 100	> 100	–	–	–
CCOC(=O)C1=CN(C(=O)c2ccc(F)cc2)CC(C)(C)c2c1[nH]c1cc(N(C)C(=O)NC3CC3)ccc21 [8-(3-cyclopropyl-1-methylureido)-3-(4-fluorobenzoyl)-1,1-dimethyl-1,2,3,6-tetrahydroazepino[4,5-b]indole-5-carboxylic acid ethyl ester]	–	–	100	< 100	–
CCOC(=O)C1=CN(C(=O)c2ccc(F)cc2)CC(C)(C)c2c1[nH]c1cc(OC(=O)NC3CCCCC3)ccc21 [8-cyclohexylcarbamoyloxy-3-(4-fluorobenzoyl)-1,1-dimethyl-1,2,3,6-tetrahydroazepino[4,5-b]indole-5-carboxylic acid ethyl ester]	< 200	10 to 30	–	< 200	–
CCOC(=O)C1=CN(C(=O)c2ccc(F)cc2)CC(C)(C)c2c1[nH]c1cc(OC(=O)NC3CC3)ccc21 [8-cyclopropylcarbamoyloxy-3-(4-fluorobenzoyl)-1,1-dimethyl-1,2,3,6-tetrahydroazepino[4,5-b]indole-5-carboxylic acid ethyl ester]	–	–	100	< 100	–
CCOC(=O)C1=CN(C(=O)c2ccc(F)cc2)CC(C)(C)c2c1[nH]c1ccc(N(Cc3ccccc3)C(=O)N(C)C)cc21 [9-(1-benzyl-3,3-dimethyl-ureido)-3-(4-fluoro-benzoyl)-1,1-dimethyl-1,2,3,6-tetrahydro-azepino[4,5-b]indole-5-carboxylic acid ethyl ester]	–	–	100	< 100	–

Now from value to compound, other results behind:

EC50 (farnesoid X receptor; [2]) [nM]	Emax (farnesoid X receptor; [3]) [%]	Compound	inhibition (farnesoid X receptor; [4]) [%]	IC50 (farnesoid X receptor; [5]) [nM]	also measured
< 100	> 100	CCOC(=O)C1=CN(C(=O)c2ccc(F)c(F)c2)CC2(CCCC2)c2c1[nH]c1ccccc21 [3-(3,4-difluorobenzoyl)-1,1-tetramethylene-1,2,3,6-tetrahydroazepino[4,5-b]indole-5-carboxylic acid ethyl ester]	–	–	–
< 100	> 100	CCOC(=O)C1=CN(C(=O)c2ccc(F)cc2)CC(C)(C)c2c1[nH]c1ccc(F)cc21 [9-Fluoro-3-(4-fluoro-benzoyl)-1,1-dimethyl-1,2,3,6-tetrahydro-azepino[4,5-b]indole-5-carboxylic acid ethyl ester]	–	–	–
< 100	> 100	CCOC(=O)C1=CN(C(=O)c2ccc(F)c(F)c2)CC(C)c2c1[nH]c1ccccc21 (stereo not drawn) [ethyl 3-(3,4-difluorobenzoyl)-1-methyl-1,2,3,6-tetrahydroazepino[4,5-b]indole-5-carboxylate]	–	–	–
–	> 100	CC(C)OC(=O)C1=CN(C(=O)c2ccc(F)c(F)c2)CC(C)(C)c2c1[nH]c1ccccc21 [isopropyl 3-(3,4-difluorobenzoyl)-1,1-dimethyl-1,2,3,6-tetrahydroazepino[4,5-b]indole-5-carboxylate]	–	–	–
< 100	> 100	CC(C)OC(=O)C1=CN(C(=O)c2ccc(F)c(F)c2)CC(C)c2c1[nH]c1ccccc21 (stereo not drawn) [isopropyl 3-(3,4-difluorobenzoyl)-1-methyl-1,2,3,6-tetrahydroazepino[4,5-b]indole-5-carboxylate]	–	–	–
